Test results: patent US20220273678A1 (priority 2020, published 2022)
Entries after “also recorded” stand apart in the source; their conditions may differ. Like-named read-outs stand apart in the source and are kept apart here.

Tests used:
[1] = system: mitochondrial reactive oxygen species (mito-ROS); assay: Mitochondrial reactive oxygen species (MitoSOX Red) and ROS content in Calu3 cells; settings: 1000 nM Mito-MES; methanesulfonate
Procedure: Flow cytometry was used to determine the cellular content of Calu3 cells for mitochondrial reactive oxygen species (mito-ROS) based on the median fluorescence intensity (MFI) of the fluorochrome MitoSOX Red and was compared to a negative cell population (fluorescence minus one negative control for staining) (ΔMFI). Flow cytometry was used to determine the percent of SARS-CoV-2 infected Calu3 cells positive for MitoSOX Red. Calu3 and Vero cells were treated with DMSO vehicle control (Ctrl) or the mitochondrial antioxidants MitoTEMPO (25-1000 nM) (72 h) or Mito-MES (25-1000 nM) (72 h) and were infected with a fluorescent mNeonGreen SARS-CoV-2 (icSARS-CoV-2-mNG) (MOI 0.3) (48 h). Immunofluorescent analysis of viral replication and cellular oxidative stress was performed at 48 hpi. […] Viral replication was determined by TCID50-assay (FIG. 3-d), cell cytotoxicity was assessed by the XTT assay in uninfected cells treated with dTPP (0.01-10 μM) (72 h) (FIG. 3-e). […]
After 24 h (or 48 h, experiments involving 4F) post-infection, cells were collected and stained with 5 μM MitoSOX Red Mitochondrial reactive oxygen species (mito-ROS) indicator for 30 min at 37° C. […] Cells were then analyzed using an LSR Fortessa flow cytometer and FACSDiva software (Becton & Dickinson, San Diego, Calif., USA), and data were analyzed using FlowJo software.

[2] = system: cleaved caspase 3; type: cell-based, African green monkey; settings: Vero, methanesulfonate
[3] = system: SARS-CoV-2; assay: Post-exposure prophylaxis in two parents of a household exposed to SARS-CoV-2; type: in vivo, human
Source text: FIG. 8-a show the timeline of exposure, symptoms and diagnostic tests in household. Two parents [[…], A1 with history of chronic myelogenous leukemia (CML) and healthy parent 39 years, A2] were notified on Dec. 5, 2020 [defined as day 5 (D5)], that the schoolteacher (T1) of their child (C1) tested positive for SARS-CoV-2 and developed symptoms of Covid-19. C1 had 6-h exposure to T1 on November 30 (with masks) (D0). The family had no other exposure to any other person between November 20-30 (D-10 to D0) given Thanksgiving Day on November 26 (D-4). Several children and parents from the same school class were infected with Covid-19 within the first 2 weeks of December. C1 developed fever (100.4° F.; 38° C.) and fatigue 2.5 days after exposure (D0) that lasted 3 days (D2-D5) and remained asymptomatic since then. The second child (C2) was asymptomatic until D12 when they developed fever (100.4° F.; 38° C.), fatigue and coryza on D12-D14. A1 and A2 started Mito-MES on D4. […]
One important consideration with COVID-19 testing is that it is often unclear how exactly the NP swab was obtained (by healthcare worker or not and whether the posterior or anterior nasopharynx were assessed). […]

[4] = system: cleaved caspase 3; type: cell-based, human; settings: methanesulfonate
[5] = system: icSARS-CoV-2-mNG; type: cell-based, SARS-CoV-2; settings: methanesulfonate

COC1=C(OC)C(=O)C(CCCCCCCCCC[P+](c2ccccc2)(c2ccccc2)c2ccccc2)=C(C)C1=O.CS(=O)(=O)[O-] [Mito-MES, 10-(4,5-dimethoxy-2-methyl-3,6-dioxo-1,4-cyclohexadienyl) decyl triphenylphosphonium methanesulfonate]
ROS content of Calu3 cells [1]: increased the ROS content of Calu3 cells
SARS-CoV-2-induced cleavage of caspase 3, immunofluorescence ([2]; Mito-MES 10-1000 nM): reduced SARS-CoV-2-induced increase in cleavage of caspase 3; also recorded: reduced by Mito-MES treatment
percent of infected cells positive for cleaved caspase 3 and MFI of cleaved caspase 3 per cell, flow cytometry ([2]; Mito-MES 100 nM, 4F 10 μM): attenuated SARS-CoV-2-induced increase; also recorded: inhibits or reduces SARS-CoV-2-induced increase
plasma IgG to SARS-CoV-2 S1 protein ([3]; each parent, three timepoints over 5 weeks): undetectable levels
symptoms and virological / serological confirmation of infection ([3]; two parents, 20 mg/day oral Mito-MES from D4, 6 weeks): remained asymptomatic and without virological and serological confirmation of infection
SARS-CoV-2-induced cleavage of caspase 3, immunofluorescence ([4]; Calu3, Mito-MES 10-1000 nM): reduced SARS-CoV-2-induced increase in cleavage of caspase 3; also recorded: reduced by Mito-MES treatment
percent of infected cells positive for cleaved caspase 3 and MFI of cleaved caspase 3 per cell, flow cytometry ([4]; Calu3, Mito-MES 100 nM, 4F 10 μM): attenuated SARS-CoV-2-induced increase; also recorded: inhibits or reduces SARS-CoV-2-induced increase
antiviral activity against fluorescent SARS-CoV-2 [5]: potent and similar antiviral activity
